# Measured values as given in US20060183794A1, “Drug composition containing nf-kb inhibitor” (priority 2002, published 2006).
# How the values were obtained:
# [1] = tested on: HUVECs; assay: Toxicity to and proliferation of HUVECs; format: cell-based, human; conditions: DHMEQ 3 μg/ml
# [2] = tested on: human breast cancer cell line MCF-7 transplanted into SCID mice; assay: MCF-7 subcutaneous tumor model in SCID mice; format: in vivo; conditions: DHMEQ 4 mg/kg i.p. three times per week
# Experimental: Subcutaneous tumor model SCID mice (CLEA Japan) were given DHMEQ (4 mg/kg) three days a week and the volume of the tumors were periodically measured for examination of the suppressive effect of DHMEQ on tumor growth. The body weights of the mice were also measured simultaneously.
# MCF-7 (1×10^6 cells) suspended in 100 μl of PBS was inoculated subcutaneously into the back of six-week-old SCID mice. DHMEQ was suspended in 0.5% methylcellulose (Nacalai Tesque) solution at 4 mg/kg in 200 μl. The drug-containing solution or 0.5% methylcellulose solution (200 μl) was intraperitoneally administered three times per week (n=8/group), starting on the next day after inoculation. The major axis and minor axis of the tumors were measured with calipers every seven days. The tumor volume was calculated as follows: (major axis)×(minor axis)^2/2. The body weights were also measured simultaneously.
# [3] = tested on: cachexia symptoms induced by JCA-1 cells; assay: Cancer cachexia model, JCA-1 tumor-bearing BALB/c nude mice; format: in vivo
# Experimental: To assay the effect of the compounds represented by the general formula (1) or pharmacologically acceptable salts thereof on cachexia, cachexia-induced BALB/c nude mice were used as model mice of human patients with cachexia. Here, cachexia symptoms were induced using the androgen-insensitive human prostatic cancer cell-line JCA-1.
# To measure the effect of DHMEQ on cachexia symptoms, the cachexia model mice were prepared using the aforementioned nude mice. JCA-1 cells (1×10^7 cells) suspended in 100 μl of PBS were inoculated subcutaneously into the flank of six-old-week nude mice (hereafter called tumor-bearing mice). Fourteen days after the inoculation, when the tumors had reached palpable sizes, the inoculated mice were randomly assigned to three groups: group 2 (Gr2; n=13), given DHMEQ (8 mg/kg bw) every day; group 3 (Gr3; n=13), given DMSO every day; and group 4 (Gr4; n=11), given nothing. Group 1 (Gr1; n=14), consisting of normal nude mice not inoculated with JCA-1 cells (hereinafter called “normal mice”), was also included. From the next day of administration of DHMEQ, the body weights (FIG. 20) and the tumor weights (FIG. 21) calculated from the tumor diameters were measured every other day. On day 26 after the start of administration of DHMEQ, all mice were dissected and the tumor weights (FIG. 22), the weights of fat around the testis (FIG. 23) the gastrocnemius weights (FIG. 24), and the hematocrits (FIG. 25; the ratio of the volume of blood cell components to that of whole blood, which can be measured by blood centrifugation) were measured. The measured values were summed up for every group.
# [4] = tested on: human pancreatic cancer cell line Colo357; assay: Annexin-V/PI flow cytometry apoptosis assay, Colo357 with irradiation; format: cell-based
# Experimental: Next, the apoptosis-enhancing effect of DHMEQ on irradiated tumor cells was investigated. The human pancreatic cancer cell line Colo357 given 10 μg/ml DHMEQ for six hours, the human pancreatic cancer cell line Colo357 irradiated with 20 Gy radiation and then incubated for 6 hours, and the human pancreatic cancer cell line Colo357 given 10 μg/ml DHMEQ for six hours immediately after irradiation with 20 Gy radiation were subjected to Annexin-V/propidium iodide (PI) double staining. The apoptotic cells (lower right) were measured by flow cytometry and the ratio was calculated. […] On the other hand, in the cells to which DHMEQ was administered after irradiation with 20 Gy radiation, the apoptosis-inducing ability is enhanced three-fold, as compared with the cells only irradiated with 20 Gy radiation
# [5] = target: T1, NF-κB (Homo sapiens, UniProt P19838+Q04206); assay: p6kb-Luc luciferase reporter assay of NF-κB activity in JCA-1 cells; format: cell-based; set-up: endogenous in cells; conditions: 2.5, 5, 10, 20, 40 μg/ml DHMEQ, 8 hours
# Experimental: To measure the inhibitory effect of DHMEQ on activity of NF-κB, the activity of NF-κB on DHMEQ at various concentrations was measured using transcriptional activity of NF-κB as an index. As the reporter, the vector construct (p6kb-Luc), containing a luciferase gene as the reporter in the downstream of the promoter containing six tandem copies of the NF-κB binding sequence, was used. This reporter plasmid was transfected into JCA-1 cells using GenePOETER™ (Gene Therapy Systems). Fourteen hours after the transfection, 2.5, 5, 10, 20, and 40 μg/ml DHMEQ was added to the cell medium, followed by further incubation for 8 hours. Subsequently, cells were recovered and luciferase activity was measured. […] Each luciferase activity was measured and the absolute value was presented by standardization. All experiments were conducted independently three times, producing averages and standard deviations.
# [6] = target: T1, NF-κB; assay: Gel shift assay (EMSA) of NF-κB activation in stimulated HUVECs; format: cell-based; set-up: endogenous in cells; host or cells: MCF-7 cells treated with TNF-α; conditions: DHMEQ 3 μg/ml, 2 h pretreatment
# Text: HUVECs were pretreated with DHMEQ as follows. […] Nuclear extract was thus obtained.
# [7] = target: T1, NF-κB; assay: 6 kB-Luc reporter assay of NF-κB transcription in multiple myeloma cell lines; format: cell-based; set-up: endogenous in cells; host or cells: MM cell lines KMM1, RPMI8226, U266; conditions: 5 μg/ml, 12-hour treatment; compared with non-treated cells
# Experimental: Next, the inhibitory effect on activation of NF-κB was investigated using the reporter assay. First, 6 kB-Luc plasmid was introduced by transfection into the MM cell lines, KMM1, RPMI8226, and U266 (transfected on a scale of a 2×10^5 cells/transfection using DMRIE-C (Invitrogen)) After 12 hours, 12-hour treatment of cells with 5 μg/ml DHM2EQ was started and the suppressive effect of DHMEQ on the transcription by NF-κB was examined. […] The suppressive effect of DHMEQ on transcription by NF-κB was therefore indicated.
# [8] = 8 mg/kg bw every day, day 26, Gr2 vs Gr3 and Gr4
# T1 sequence (Q04206 whole entry): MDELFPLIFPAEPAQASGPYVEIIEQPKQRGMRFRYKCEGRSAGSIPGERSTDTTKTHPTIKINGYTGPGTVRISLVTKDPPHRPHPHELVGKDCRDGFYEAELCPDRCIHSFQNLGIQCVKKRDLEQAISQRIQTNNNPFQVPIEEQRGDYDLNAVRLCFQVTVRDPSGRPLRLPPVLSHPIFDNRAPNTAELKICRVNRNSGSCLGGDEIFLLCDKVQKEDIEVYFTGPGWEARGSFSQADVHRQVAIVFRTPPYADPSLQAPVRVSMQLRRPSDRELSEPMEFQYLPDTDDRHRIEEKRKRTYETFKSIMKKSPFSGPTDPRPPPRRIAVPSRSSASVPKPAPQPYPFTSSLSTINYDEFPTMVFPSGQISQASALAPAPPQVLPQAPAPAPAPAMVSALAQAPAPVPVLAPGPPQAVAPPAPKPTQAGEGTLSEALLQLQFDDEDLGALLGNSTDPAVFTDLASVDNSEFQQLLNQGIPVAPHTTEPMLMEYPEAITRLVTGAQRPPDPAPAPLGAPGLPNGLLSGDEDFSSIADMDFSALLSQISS
# T1 sequence (P19838 1-433 limits assumed): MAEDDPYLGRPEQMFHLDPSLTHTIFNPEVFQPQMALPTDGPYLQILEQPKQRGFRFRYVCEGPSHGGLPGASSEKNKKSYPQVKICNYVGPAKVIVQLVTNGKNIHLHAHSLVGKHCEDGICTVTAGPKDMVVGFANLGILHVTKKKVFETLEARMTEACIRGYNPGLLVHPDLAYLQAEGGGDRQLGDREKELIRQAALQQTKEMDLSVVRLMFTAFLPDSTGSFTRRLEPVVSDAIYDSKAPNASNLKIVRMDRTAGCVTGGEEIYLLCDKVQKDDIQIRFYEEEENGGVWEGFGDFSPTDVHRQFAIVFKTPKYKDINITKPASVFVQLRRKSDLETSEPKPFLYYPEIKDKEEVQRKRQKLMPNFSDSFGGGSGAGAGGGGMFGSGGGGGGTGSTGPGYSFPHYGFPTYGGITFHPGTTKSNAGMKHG
structure (smiles),measurement,setting,value
"O=C(NC1=CC(=O)C2OC2C1O)c1ccccc1O (centres unmarked) [DHMEQ, 5,6-epoxy-4-hydroxy-3-salicyloylamino-2-cyclohexenone]",toxicity to HUVECs and suppression of their proliferation,[1],neither exhibited toxicity to HUVECs nor suppressed their proliferation
same,mortality or weight loss of the mice,[2],No mortality or weight loss
same,tumor growth (tumor volume),[2]; MCF-7 s.c.,significant suppressive effect
same,body weight reduction,[3]; 8 mg/kg bw every day (Gr2) vs Gr3 and Gr4,significantly suppressed
same,influence on internal organ weights,"[3]; 8 mg/kg bw every day, day 26",No unfavorable influence
same,regressive effect on tumors (tumor weight),"[3]; 8 mg/kg bw every day, day 26",no regressive effect
same,gastrocnemius weight,[3]; [8],weight reduction was significantly suppressed
same,hematocrit,[3]; [8],significant tendency of recovery
same,weight of fat around the testis,[3]; [8],weight reduction was significantly suppressed
same,apoptosis-inducing ability versus irradiation only,[4]; 10 μg/ml six hours after 20 Gy radiation,three-fold
same,apoptosis induction by DHMEQ alone,"[4]; 10 μg/ml, six hours",apoptosis was not induced
same,NF-κB activity (luciferase) in JCA-1 cells,[5],concentration-dependently inhibits
same,"activation of NF-κB in HUVECs caused by TNF-α, IL-1β, and LPS",[6],completely suppressed
same,transcription by NF-κB suppressed by (reporter assay),[7],about 50%
